The conditions of data set [1]: Sprague–Dawley rats; ref data not published; cited from earlier work.
The conditions of data set [2]: cited from earlier work.
A short description of the next data set: clinical. As to conditions: plasma. Here is the method: Signed and dated written informed consent was obtained from each patient before participation in the study and before the performance of any procedures. After informed consent was obtained, eligible participants were given the choice to be admitted to the clinical research unit on day − 1 or on day 1. A summary of the study design can be found in Fig. 1. […] Subjects continued fasting until 2 h after the start of the IV infusion, at which time a non-standardised light meal was served. The radiolabelled dose contained approximately 100 nCi (3.7 kBq) radioactivity and was administered into one arm of the subject; the contralateral arm was used for pharmacokinetic sampling and clinical laboratory blood draws. The syringe for IV drug administration was connected to a Perfusor Space Infusion Pump (B. Braun), which was set to administer 7 mL in 15 min. Blood samples were taken pre-dose and at 1, 1.5, 2 (just before start of IV infusion), 2.125 (halfway through the IV infusion), 2.25 (just before end of infusion), 2.33, 2.66, 3, 4, 6, and 12 h. Sampling was done on each morning of days 2, 3, 4, 5, 7, 9, 11, 13, 15, and 22. Plasma was divided in two sets: one set was sent to Xceleron Inc. (Germantown, MD, USA) for the determination of plasma concentrations of the ^14C-microtracer by AMS, and the other set was stored at the Antoni van Leeuwenhoek Hospital until it received pharmacokinetic analysis at the Good Laboratory Practice–licensed laboratory of the pharmacy. Plasma was separated from blood by centrifugation (3,000 rpm, 15 min, 4 °C) and was stored frozen at ≤ − 70 °C in polypropylene tubes before and after analysis. […] Vital signs assessments, haematology assessment, and blood chemistry assessments were done frequently to make sure that the patients were still in sufficient condition to remain on treatment. […] The study was approved by the local independent ethics committee and was conducted in accordance with local regulations, the Declaration of Helsinki, and International Conference on Harmonisation Good Clinical Practice Guidelines.
In brief, separation was carried out using an HPLC Acquity I Class pump (Waters, Milford, MA, USA) supplied with a SunFire C18 column (50 mm × 2.1 mm, 5 µm, Waters). Gradient elution was applied using 20 mM ammonium acetate in water (mobile phase A) and 0.1% formic acid in acetonitrile-methanol (50:50, v/v; mobile phase B). Each batch of experimental samples was run against freshly prepared calibration standards. Replicate quality control samples at three concentrations were stored and analysed alongside study samples. The analytical range was from 1 to 500 ng/mL.
Total ^14C-radioactivity concentrations in plasma samples were determined using AMS. Plasma samples were directly aliquoted into tubes containing copper oxide powder (CuO). The samples were graphitised and analysed by a Single Stage Accelerator Mass Spectrometer (SSAMS) 250 kV system (National Electrostatics Corp., Middleton, WI, USA). […] Samples were analysed by an Agilent 1200 HPLC system (Agilent Technologies, Palo Alto, CA, USA) equipped with a wavelength UV detector set to 254 nm. Separation was achieved using a Phenomenex Kinetex 2.6 µ biphenyl column (100 Å, 100 × 3.0 mm). Mobile phase A and B consisted of 20 mM ammonium acetate in water and 0.1% formic acid in acetonitrile–methanol (50:50, v/v), respectively. Column oven temperature was set at 40 °C, and run-time was 18 min. […] The fractions were graphitised and analysed by SSAMS. Each batch of experimental samples was run against freshly prepared calibration standards at seven concentrations in duplicates. Replicate quality control samples at three concentrations were stored and also analysed alongside study samples. Finally, F po was calculated as the ratio of the dose-normalised AUC of the oral dose to the IV dose.

For data set [3] the following is noted: beagle dogs; ref data not published; cited from earlier work.
Details of data set [4]: method as in PMID 28303528. Conditions: humans, cited from earlier work.

Read-outs that look alike come from different tables or passages of the source.

One may read the bioavailability as the share of a dose that reaches the circulation, judged against a reference dose that is usually intravenous. A lower bioavailability goes with poor availability. What is called AUC(0-inf) is the area under the concentration-time curve extrapolated to infinity. A word on the AUC(0-t): it is the area under the concentration-time curve up to a stated or last time point. A higher AUC(0-t) goes with more exposure. As usually defined, the Cmax is the maximum level reached in the sampled fluid or tissue. Usually half-life stands for how long it takes for the measured level to halve. A low value points to rapid decline. Regarding `NC(=O)c1cccc2cn(-c3ccc([C@@H]4CCCNC4)cc3)nc12` [niraparib], the F po was 27% in data set [1] and 57% in data set [3]. In addition, the t max result in data set [2] (previous phase I dose-escalation study, range 1.5–4.1 h) is “around 3.1 h”; in the data set “clinical” (human, po, 300 mg, t max, oral 300 mg niraparib, n = 6, median and range), 4 h; in the data set “clinical” (oral 300 mg niraparib, n = 6, median and range), 4.01 (3.07–6.03) h. Further, the “t ½” value in data set [2] (previous study, shorter sampling period) is given as 36.2 h. In addition, the bioavailability in “clinical” (human, oral, 300 mg) was 72.7%. The same compound had an AUC(0-inf) in the data set “clinical” (human, po, 300 mg) of 47400 ng·h/mL. The AUC(0-t) in “clinical” (human, po, 300 mg) is 46900 ng·h/mL. The compound also showed a Cmax in “clinical” (human, po, 300 mg) of 1270 ng/mL. The half-life in the data set “clinical” (human, po, 300 mg, t ½, oral 300 mg niraparib, n = 6, sampling 22 days) is approximately 95.6 h. For the same compound, in data set [4] (oral radiolabelled niraparib), the “Dose recovered as the parent compound in faeces” value is “approximately 20%”. For the same compound, the “Total orally administered dose recovered in excreta” value in data set [4] (urine and faeces, radiolabelled niraparib) is recorded as “approximately 90%”.

Consider `O=C(O)c1cccc2cn(-c3ccc(C4CCCNC4)cc3)nc12` (centres unmarked) [M1], for which the “Presence of metabolite in circulation” value in data set [4] was “substantially present in circulation”.

The values are drawn from paper PMC5754411 (Cancer Chemotherapy and Pharmacology, 2017).
